Assay results taken from patent US11649237B2, “Substituted imidazo[1,5-a]pyrazines for IRE1 inhibition” (Optikira LLC, priority 2017, dated 2023).

Tests used:
[1] = test system: XBP-1 splicing in ARPE-19 cells or apoptosis of INS-1 cells expressing mIRE-1; assay: Cellular assay (XBP1 splicing assay or apoptosis assay); assay type: cell-based; settings: data are for the XBP1 splicing assay or the apoptosis assay (not specified per compound)
[2] = biological target: IRE1α RNase (Homo sapiens (Human), UniProt O75460); assay: Biochemical assay, inhibition of RNase activity of IRE1α
IRE1α RNase, sequence (O75460 468-977): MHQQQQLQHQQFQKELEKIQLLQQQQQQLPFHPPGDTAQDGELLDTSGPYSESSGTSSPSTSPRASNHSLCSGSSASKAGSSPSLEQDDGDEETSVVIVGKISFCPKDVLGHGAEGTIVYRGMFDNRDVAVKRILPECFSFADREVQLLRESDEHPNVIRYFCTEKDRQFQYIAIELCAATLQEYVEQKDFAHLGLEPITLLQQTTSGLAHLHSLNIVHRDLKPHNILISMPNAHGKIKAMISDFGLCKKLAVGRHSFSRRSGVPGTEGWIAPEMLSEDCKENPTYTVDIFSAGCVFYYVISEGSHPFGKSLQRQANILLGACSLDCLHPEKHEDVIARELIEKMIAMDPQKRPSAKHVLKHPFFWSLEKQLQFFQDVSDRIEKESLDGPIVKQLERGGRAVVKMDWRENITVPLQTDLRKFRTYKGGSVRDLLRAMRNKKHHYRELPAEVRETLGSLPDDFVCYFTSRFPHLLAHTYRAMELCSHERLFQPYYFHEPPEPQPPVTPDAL
Protocol: Test compounds were prepared on the day of assay and dispensed using D300 digital dispenser as a 10-point ½ log dilution series in duplicate, normalized to a final DMSO concentration of 4%. Test compounds were pre-incubated for 30 min at room temperature with IRE1α kinase (E31-11G from Signal Chem) in 2.5 μL of assay buffer.

| Structure (SMILES) | IC50 [1] [nM] | IC50 [2] [nM] |
| --- | --- | --- |
| CC(C)c1nc(-c2cc(F)c(NS(=O)(=O)c3ccccc3Cl)cc2F)c2c(N)ncc(C3=CCC(NCCF)CC3)n12 (stereo not drawn) [Example 228, N-(4-(8-amino-5-(4-((2-fluoroethyl)amino)cyclohex-1-en-1-yl)-3-isopropylimidazo[1,5-a]pyrazin-1-yl)-2,5-difluorophenyl)-2-chlorobenzenesulfonamide] | 10 | 6 |
| CC(C)c1nc(-c2ccc(NS(=O)(=O)c3ccccc3F)c(F)c2)c2c(N)ncc(C3=CCC(NCCF)CC3)n12 (stereo not drawn) [Example 229, N-(4-(8-amino-5-(4-((2-fluoroethyl)amino)cyclohex-1-en-1-yl)-3-isopropylimidazo[1,5-a]pyrazin-1-yl)-2-fluorophenyl)-2-fluorobenzenesulfonamide] | 25 | 25 |
| CC(C)c1nc(-c2ccc(NS(=O)(=O)c3ccccc3Cl)c(F)c2)c2c(N)ncc(C3=CCC(NC4COC4)CC3)n12 (stereo not drawn) [Example 232, N-(4-(8-amino-3-isopropyl-5-(4-(oxetan-3-ylamino)cyclohex-1-en-1-yl)imidazo[1,5-a]pyrazin-1-yl)-2-fluorophenyl)-2-chlorobenzenesulfonamide] | 200 | 60 |
